In patent US20030147957A1, “Dual release formulation comprising levodopa ethyl ester and a decarboxylase inhibitor in immediate release layer with levodopa ethyl ester and a decarboxylase inhibitor in a controlled release core” (priority 2001, published 2003):
Values after ≈ are worked out from the molar mass of the structure shown.

Experiment: Solubility versus pH at ~22-24° C.
Type: physicochemical
Conditions: 23 °C
Source text: However, carbidopa and LDEE, examples of two active materials in the composition of the present invention, have different chemical and physical properties and contrasting solubility characteristics especially in acid conditions, i.e., in the gastrointestinal tract (see Table 1).

[1] = aqueous buffer, pH 5.0, ~22-24° C.
[2] = simulated gastric fluid, pH 1.0, ~22-24° C.

Row | solubility [1] | solubility [2] | SMILES
1 | 1660 µg/mL (≈ 7.34 mM) | 21400 µg/mL (≈ 94.6 mM) | C[C@@](Cc1ccc(O)c(O)c1)(NN)C(=O)O [Carbidopa, carbidopa]
2 | 4960 µg/mL (≈ 25.2 mM) | 5380 µg/mL (≈ 27.3 mM) | N[C@@H](Cc1ccc(O)c(O)c1)C(=O)O [Levodopa, levodopa]
